# Test results published in patent US12048680B2, “Use of Gemfibrozil and derivative thereof for treatment and/or prevention of neurodegenerative disease” (Kunming Institute of Zoology Chinese Academy of Sciences, priority 2018, dated 2024).
# Assays:
# astrocytes and microglia = experiment: Immunofluorescence staining of mouse brain tissue, glia co-localization with Aβ plaques; assay type: in vivo; conditions: brain tissue of APP/PS1ΔE9 mice
# APP/PS1ΔE9 mice = experiment: Water maze test of spatial learning and memory; assay type: in vivo, mouse
# Experimental: Gemfibrozil was administered to 8-month-old APP/PS1ΔE9 mice (male and female halves). Gemfibrozil was first dissolved in dimethyl sulfoxide (DMSO) at a concentration of 50 mg/mL, and then diluted to a final concentration of 50 μg/mL with mouse drinking water to obtain a drug solution. The mice in the administration group were allowed to freely drink the drug solution containing gemfibrozil, in which the final concentration of DMSO in the solution was 0.1%; and the mice in the control group were allowed to drink water containing 0.1% DMSO freely. All drinking devices contained with Gemfibrozil were wrapped in aluminum foil to prevent decomposition by exposure. During dosing, the drug solution was replaced every 2 days. Mice were measured daily for water consumption. After 2 months of dosing, all mice were subjected to behavioural experiments. Mice were placed in the laboratory to be behaviourally tested one hour prior to the start of daily behavioural studies, and all behavioural experiments were completed between 9 and 17 o'clock. All experiments involving animals were approved by Animal Ethics Committee of the Kunming Institute of Zoology, CAS. According to the application, a water maze experiment was adopted to evaluate the learning and memory capacity of AD mice after Gemfibrozil was administered for 2 months. The parameters of the used water maze were as follows: a circular pool having a diameter of 120 cm, a height of 50 cm, and a water depth of about 30 cm; and a cylindrical plastic lifesaving platform having a diameter of 10 cm, a height of 29 cm, and submerged 1 cm below the water surface. The water temperature was kept at 20+1° C. During the test, in order to prevent the mice from seeing the platform, white plastic foam was added to the water to spread on the water surface evenly until the lifesaving platform could not be seen, and the water was replaced every two days. The circular pool was divided into four quadrants, and the lifesaving platform was placed in the center of the third quadrant. A camera was arranged right above the water maze and used for recording the movement track of the mice. Mice were placed from the rearing room into a room for the water maze experiment for 1 hour before the start of each day of the experiment. The mice were trained for 7 consecutive days. The starting position was randomly changed among the four quadrants, the mice were allowed to explore freely for 1 minute, and the time required for the mice to find a lifesaving platform (also known as latency) was measured. If the mouse was able to find the platform within 1 minute, it was allowed to sit on the platform for 20 seconds, so that it can remember the location of the lifesaving platform based on surrounding markers. […] Each mouse was trained at 90-minute intervals each day and randomly placed in the water maze in three different quadrants each day to look for the lifesaving platform. After 4 hours after the last training on the 7th day, the lifesaving platform of the water maze was removed. The mice were put into water, and the time, the distance and the speed of the mice around the lifesaving platform within 1 minute and the number of shuttles at the position of the lifesaving platform were measured, thereby evaluating the short-term memory capacity of the mice. After 72 hours after the last training on the 7th day, the lifesaving platform of the water maze was removed again. The mice were put into water, and the time, the distance and the speed of the mice around the lifesaving platform within 1 minute and the number of shuttles at the position of the lifesaving platform were measured, thereby evaluating the long-term memory capacity of the mice. During the experiment, the surrounding environment of the water maze should be kept consistent to avoid the influence of environmental factors. The behavior of the mice was followed and videotaped throughout the experiment using SMART 3.0 software (Panlab HARVARD, MA, USA). […]
# Aβ plaques = experiment: Immunohistochemical staining of Aβ plaques with Aβ (4G8) antibodies; assay type: in vivo; conditions: brain tissue of APP/PS1ΔE9 mouse, vs control group (A-C in FIG. 5)
compound,measurement,setting,value
"Cc1ccc(C)c(OCCCC(C)(C)C(=O)O)c1 [Gemfibrozil, 2,2-dimethyl-5-(2,5-dimethylphenoxy) pentanoic acid]",degree of co-localization of the marker Iba1 for microglia with Aβ plaques,astrocytes and microglia; vs control APP/PS1ΔE9 mice (A-B in FIG. 6),significantly increased
same,degree of co-localization of GFAP for astrocytes with Aβ plaques,astrocytes and microglia; vs control APP/PS1ΔE9 mice (C-D in FIG. 6),significantly increased
same,learning ability,"APP/PS1ΔE9 mice; 8-month-old APP/PS1ΔE9 mice, 50 μg/mL in drinking water for 2 months, 7 days of training, vs control group",significantly improved
same,short-term memory capacity,"APP/PS1ΔE9 mice; 4 hours after the last training, platform removed, vs control group",significantly improved
same,long-term memory capacity,"APP/PS1ΔE9 mice; 72 hours after the last training, platform removed",significantly improved
same,escape time (latency) required to reach the lifesaving platform,"APP/PS1ΔE9 mice; APP/PS1ΔE9 mice, 50 μg/mL in drinking water for 2 months, training phase, vs control group (A in FIG. 1)",less than the control group
same,range required to reach the lifesaving platform,"APP/PS1ΔE9 mice; APP/PS1ΔE9 mice, 50 μg/mL in drinking water for 2 months, training phase, vs control group (B in FIG. 1)",less than the control group
same,lingering time in the target quadrant,"APP/PS1ΔE9 mice; long-term memory, 72 hours after the last training (G in FIG. 1)",increase
same,distance in the target quadrant,"APP/PS1ΔE9 mice; long-term memory, 72 hours after the last training (H in FIG. 1)",increase
same,number of shuttles at the position of the lifesaving platform,"APP/PS1ΔE9 mice; long-term memory, 72 hours after the last training (I in FIG. 1)",increases
same,lingering time in the target quadrant,"APP/PS1ΔE9 mice; short-term memory, 4 hours after the last training (D in FIG. 1)",increase
same,distance in the target quadrant,"APP/PS1ΔE9 mice; short-term memory, 4 hours after the last training (E in FIG. 1)",increase
same,number of shuttles at the position of the lifesaving platform,"APP/PS1ΔE9 mice; short-term memory, 4 hours after the last training (F in FIG. 1)",increases
same,deposition of Aβ plaques labeled with Aβ (4G8) antibodies,Aβ plaques,significantly reduced
